Values of other authors in patent US20060160783A1, “Novel omeprazole forms and related methods” (Transform Pharmaceuticals, Inc., priority 2004, published 2006).

Assays:
[1] = according to the '188 Patent
[2] = not given; remark: listed apart in the source

hygroscopicity [1]	stability in acidic aqueous solutions	solubility in alkaline solutions ([2]; alkaline solutions, as a negatively charged ion)	solubility in water ([2]; water)	SMILES
less hygroscopic than omeprazole form A	–	–	–	COc1ccc2[n-]c([S+]([O-])Cc3ncc(C)c(OC)c3C)nc2c1.[Na+] (centres unmarked) [Omeprazole sodium salt form B]
–	degrades very rapidly	very soluble	only slightly soluble	COc1ccc2[nH]c([S+]([O-])Cc3ncc(C)c(OC)c3C)nc2c1 (centres unmarked) [Omeprazole, 5-methoxy-2-[[(4-methoxy-3,5-dimethyl-2-pyridinyl)methyl]sulfinyl]-1H-benzimidazole]
very hygroscopic	–	–	–	COc1ccc2[n-]c([S+]([O-])Cc3ncc(C)c(OC)c3C)nc2c1.[Na+] (centres unmarked) [omeprazole sodium form A]
